Assay results reported in publication PMC12156185, “Synthesis of Cyclic Hexapeptides via the Hydrazide Method and Evaluation of Their Antibacterial Activities” (Molecules, 2025).
Values after ≈ are worked out from the molar mass of the structure shown. Where a SMILES comes first, the peptide text is derived from it.

Key:
[1] = system: Acinetobacter baumannii (BNCC 337173); type: cell-based
Procedure: (§1) The antimicrobial and antifungal activities of 11 cyclic hexapeptides (Cy-f1 to Cy-f11) were evaluated by determining their minimum inhibitory concentrations (MICs) against a panel of pathogens (Figure 4). These pathogens included Gram-negative bacteria (Escherichia coli, Klebsiella pneumoniae, Pseudomonas aeruginosa), Gram-positive bacteria (Staphylococcus aureus, Bacillus subtilis, Staphylococcus aureus [MRSA], […]), and fungi (Candida tropicalis, Cryptococcus neoformans).
(§2) The antibacterial activity of peptide analogs was tested against different bacterial strains, all purified cyclotides underwent antibacterial testing against Gram-positive bacterium Staphylococcus aureus (BNCC 186335), Bacillus subtilis (BNCC 109047), and Staphylococcus aureus (MRSA, BNCC 330041), Gram-negative bacteria, including Acinetobacter baumannii (BNCC 337173), Pseudomonas aeruginosa (BNCC 125486), and […]. Fungi included Candida parapsilosis (BNCC 336515) and Candida tropicalis (BNCC 340288). All the above strains are from the Henan Provincial Engineering Research Center of Industrial Microorganisms (Henan, China). Escherichia coli (ATCC 25922) and Klebsiella pneumoniae (CMCC(B) 46117) were sourced from Guangzhou HuanKai Microbial Technology Co., Ltd. (Guangzhou, China). The peptides’ MIC was determined using the Clinical and Laboratory Standards Institute broth dilution procedure with slight modifications.
(§3) Colonies of these bacterial strains were grown in respective agar media, then inoculated in Mueller Hinton (MH) broth and incubated at 37 °C overnight. The peptide solutions were first diluted 1 in 100 (from the stock solution at 20 mM) and then further two-fold dilution in MH broth in a sterile 96-well plate was performed, resulting in 100 µL of broth containing increasing concentrations. Bacteria in their exponential growth phase were diluted in MH broth, and 100 µL of this suspension was added in each well. […] Then, these plates were incubated at 37 °C for 20–22 h.
(§4) Each test was performed at least three times. MIC (minimum inhibitory concentration) values were determined as the concentrations of peptides that caused >99% inhibition of bacterial growth.

[2] = system: Bacillus subtilis (BNCC 109047); type: cell-based
Procedure: as §1, §2, §3, §4

[3] = system: Escherichia coli (ATCC 25922); type: cell-based
Procedure: as §1, §2, §3, §4

[4] = system: Klebsiella pneumoniae (CMCC(B) 46117); type: cell-based
Procedure: as §1, §2, §3, §4

[5] = system: Pseudomonas aeruginosa (BNCC 125486); type: cell-based
Procedure: as §1, §2, §3, §4

[6] = system: Staphylococcus aureus (BNCC 186335); type: cell-based
Procedure: as §1, §2, §3, §4

[7] = system: Staphylococcus aureus (MRSA, BNCC 330041); type: cell-based
Procedure: as §1, §2, §3, §4

[8] = system: Cryptococcus neoformans (BNCC 225501); type: cell-based; settings: BNCC 225501, 48 h
Procedure: as §1, §2, §4

[9] = system: Candida tropicalis (BNCC 340288); type: cell-based; settings: BNCC 340288, 24 h
Procedure: as §1, §2
Candida tropicalis was cultured on Sabourad Dextrose Agar (SDA). A single colony was inoculated in YM broth medium and grown overnight at 37 °C while shaking. Peptides were diluted in SDB media by two-fold dilution, resulting in 100 µL of medium containing increasing concentrations. The overnight culture (turbidity at OD600 = 1) was 1000× diluted in SDB. Then 100 µL of this suspension was added to each well, resulting in a final 200 µL suspension containing 2–4 × 10^5 CFU/mL. The plate was incubated at 37 °C for 24 h.
as §4

[10] = Head-to-tail amide via hydrazide-based intramolecular NCL: C-terminal peptide hydrazide + NaNO2 (10 eq, pH 3, -15 °C) to acyl azide, then MPAA (40 eq) thioester, pH 6.3-6.5 (Fig 2: 6.7-7), S-to-N acyl shift onto N-terminal Cys; TCEP work-up; settings: the molecule shown is the open-chain precursor; 18-membered ring; 0.2 M sodium phosphate, 6 M guanidine HCl (aq); 0.75 mM; 25.0 °C

| SMILES | MIC against E. coli [3] | MIC against P. aeruginosa [5] | MIC against S. aureus [6] | MIC against C. neoformans [8] | MIC against C. tropicalis [9] | ring closure, product found (1=cyclised, 0=failed) [10] | further results |
| --- | --- | --- | --- | --- | --- | --- | --- |
| CC[C@H](C)[C@@H]1NC(=O)[C@@H]2CCCN2C(=O)[C@H](CCCCN)NC(=O)[C@H](CCCNC(=N)N)NC(=O)[C@H](CS)NC(=O)[C@H](C(C)C)NC1=O [Cy-f6] (cyclo(CRKPIV)) | > 200 µM | > 200 µM | > 200 µM | > 200 µM | > 200 µM |  | MIC against A. baumannii [1]: > 200 µM; MIC against B. subtilis [2]: > 200 µM; MIC against K. pneumoniae [4]: > 200 µM; MIC against MRSA [7]: > 200 µM |
| CC[C@H](C)[C@@H]1NC(=O)[C@H](CS)NC(=O)[C@H]([C@@H](C)CC)NC(=O)[C@H]([C@@H](C)CC)NC(=O)[C@@H]2CCCN2C(=O)[C@H](CCCNC(=N)N)NC1=O [Cy-f11] (cyclo(CIRPII)) | > 200 µM | > 200 µM | > 200 µM | 128 µM (≈ 89.1 µg/mL) | 64 µM (≈ 44.5 µg/mL) |  | MIC against A. baumannii [1]: > 200 µM; MIC against B. subtilis [2]: 64 µM (≈ 44.5 µg/mL); MIC against K. pneumoniae [4]: 64 µM (≈ 44.5 µg/mL); MIC against MRSA [7]: > 200 µM |
| CC[C@H](C)[C@H](NC(=O)[C@@H]1CCCN1C(=O)[C@H](CCCCN)NC(=O)[C@H](CCCNC(=N)N)NC(=O)[C@@H](N)CS)C(=O)N[C@H](C(=O)NN)C(C)C [H-Cys-Arg-Lys-Pro-Ile-Val-NHNH2] |  |  |  |  |  | 1 |  |
| CC[C@H](C)[C@H](NC(=O)[C@H](CCCCN)NC(=O)[C@H](CC(C)C)NC(=O)[C@H](CC(C)C)NC(=O)[C@@H](N)CS)C(=O)N[C@@H](Cc1ccccc1)C(=O)NN [H-Cys-Leu-Leu-Lys-Ile-Phe-NHNH2] |  |  |  |  |  | 1 |  |
| CC(C)C[C@H](NC(=O)[C@@H](NC(=O)[C@@H]1CCCN1C(=O)[C@H](CCCCN)NC(=O)[C@H](CCCNC(=N)N)NC(=O)[C@@H](N)CS)C(C)C)C(=O)NN [H-Cys-Arg-Lys-Pro-Val-Leu-NHNH2] |  |  |  |  |  | 1 |  |
| CC[C@H](C)[C@@H]1NC(=O)[C@H](CCCNC(=N)N)NC(=O)[C@H](CS)NC(=O)[C@H](CCCNC(=N)N)NC(=O)[C@H](C(C)C)NC(=O)[C@H](C(C)C)NC1=O [Cy-f8] (cyclo(CRIVVR)) | 16 µM (≈ 11.6 µg/mL) |  | 8 µM (≈ 5.82 µg/mL) | 32 µM (≈ 23.3 µg/mL) | 16 µM (≈ 11.6 µg/mL) |  | MIC against B. subtilis [2]: 8 µM (≈ 5.82 µg/mL); MIC against K. pneumoniae [4]: 32 µM (≈ 23.3 µg/mL) |
| CC(C)C[C@H](NC(=O)[C@H](CCCCN)NC(=O)[C@@H](N)CS)C(=O)N[C@@H](CCCNC(=N)N)C(=O)N[C@@H](Cc1c[nH]c2ccccc12)C(=O)N[C@@H](Cc1ccccc1)C(=O)NN [H-Cys-Lys-Leu-Arg-Trp-Phe-NHNH2] |  |  |  |  |  | 1 |  |
| CC[C@H](C)[C@H](NC(=O)[C@@H](NC(=O)[C@@H]1CCCN1C(=O)[C@H](CCCNC(=N)N)NC(=O)[C@@H](NC(=O)[C@@H](N)CS)[C@@H](C)CC)[C@@H](C)CC)C(=O)NN [H-Cys-Ile-Arg-Pro-Ile-Ile-NHNH2] |  |  |  |  |  | 1 |  |
| CC[C@H](C)[C@@H]1NC(=O)[C@H](CCCCN)NC(=O)[C@H](CC(C)C)NC(=O)[C@H](CCCCN)NC(=O)[C@H](CS)NC(=O)[C@H](Cc2ccccc2)NC1=O [Cy-f3] (cyclo(CKLKIF)) | 64 µM (≈ 46.9 µg/mL) | 128 µM (≈ 93.8 µg/mL) | 16 µM (≈ 11.7 µg/mL) | 8 µM (≈ 5.86 µg/mL) | 32 µM (≈ 23.5 µg/mL) |  | MIC against A. baumannii [1]: 128 µM (≈ 93.8 µg/mL); MIC against B. subtilis [2]: 32 µM (≈ 23.5 µg/mL); MIC against K. pneumoniae [4]: 64 µM (≈ 46.9 µg/mL); MIC against MRSA [7]: 32 µM (≈ 23.5 µg/mL) |
| CC[C@H](C)[C@H](NC(=O)[C@H](CCCNC(=N)N)NC(=O)[C@@H](N)CS)C(=O)N[C@H](C(=O)N[C@H](C(=O)N[C@@H](CCCNC(=N)N)C(=O)NN)C(C)C)C(C)C [H-Cys-Arg-Ile-Val-Val-Arg-NHNH2] |  |  |  |  |  | 1 |  |
| CC(C)C[C@@H]1NC(=O)[C@H](C(C)C)NC(=O)[C@@H]2CCCN2C(=O)[C@H](CCCCN)NC(=O)[C@H](CCCNC(=N)N)NC(=O)[C@H](CS)NC1=O [Cy-f7] (cyclo(CRKPVL)) | 128 µM (≈ 89.2 µg/mL) | 128 µM (≈ 89.2 µg/mL) | 32 µM (≈ 22.3 µg/mL) | 16 µM (≈ 11.2 µg/mL) | 32 µM (≈ 22.3 µg/mL) |  |  |
| CC[C@H](C)[C@H](NC(=O)[C@@H](N)CS)C(=O)N[C@@H](CCCNC(=N)N)C(=O)N1CCC[C@H]1C(=O)N[C@H](C(=O)N[C@@H](CC(C)C)C(=O)NN)[C@@H](C)CC [H-Cys-Ile-Arg-Pro-Ile-Leu-NHNH2] |  |  |  |  |  | 1 |  |
| CC[C@H](C)[C@H](NC(=O)[C@@H](NC(=O)[C@@H]1CCCN1C(=O)[C@H](CCCCN)NC(=O)[C@H](CCCNC(=N)N)NC(=O)[C@@H](N)CS)[C@@H](C)CC)C(=O)NN [H-Cys-Arg-Lys-Pro-Ile-Ile-NHNH2] |  |  |  |  |  | 1 |  |
| CC[C@H](C)[C@H](NC(=O)[C@H](CCCCN)NC(=O)[C@H](CC(C)C)NC(=O)[C@H](CCCNC(=N)N)NC(=O)[C@@H](N)CS)C(=O)N[C@@H](Cc1ccccc1)C(=O)NN [H-Cys-Arg-Leu-Lys-Ile-Phe-NHNH2] |  |  |  |  |  | 1 |  |
| CC[C@H](C)[C@@H]1NC(=O)[C@H]([C@@H](C)CC)NC(=O)[C@@H]2CCCN2C(=O)[C@H](CCCCN)NC(=O)[C@H](CCCNC(=N)N)NC(=O)[C@H](CS)NC1=O [Cy-f5] (cyclo(CRKPII)) | 128 µM (≈ 91 µg/mL) | 128 µM (≈ 91 µg/mL) | 16 µM (≈ 11.4 µg/mL) | 32 µM (≈ 22.8 µg/mL) | 64 µM (≈ 45.5 µg/mL) |  |  |
| CC[C@H](C)[C@H](NC(=O)[C@@H](NC(=O)[C@H](CCCNC(=N)N)NC(=O)[C@@H](N)CS)C(C)C)C(=O)N[C@H](C(=O)N[C@@H](CCCNC(=N)N)C(=O)NN)[C@@H](C)CC [H-Cys-Arg-Val-Ile-Ile-Arg-NHNH2] |  |  |  |  |  | 1 |  |
| CC[C@H](C)[C@H](NC(=O)[C@H](CCCCN)NC(=O)[C@H](CC(C)C)NC(=O)[C@H](CCCCN)NC(=O)[C@@H](N)CS)C(=O)N[C@@H](Cc1ccccc1)C(=O)NN [H-Cys-Lys-Leu-Lys-Ile-Phe-NHNH2] |  |  |  |  |  | 1 |  |
| CC[C@H](C)[C@@H]1NC(=O)[C@H](C(C)C)NC(=O)[C@H](CCCNC(=N)N)NC(=O)[C@H](CS)NC(=O)[C@H](CCCNC(=N)N)NC(=O)[C@H]([C@@H](C)CC)NC1=O [Cy-f10] (cyclo(CRVIIR)) |  | 128 µM (≈ 94.8 µg/mL) | 8 µM (≈ 5.93 µg/mL) | 16 µM (≈ 11.9 µg/mL) | 128 µM (≈ 94.8 µg/mL) |  |  |
